Where a SMILES comes first, the peptide text is derived from it. [ ]: non-standard residue; d: D form. The star is where a group is joined. ξ: configuration not given here. Asp(3,3-(CH2)4) = N[C@H](C(=O)O)C1(C(=O)O)CCCC1; Gly(1-COOH-cBu) = N[C@H](C(=O)O)C1(C(=O)O)CCC1; cPrCO(2,2,3,3-Me4) = CC1(C)C(C(=O)*)C1(C)C; X1 = CC1CCC(C)C(C(=O)*)C1C(=O)OCCc1ccccc1; Benzoyl(2-Ph) = O=C(c1ccccc1-c1ccccc1)*; ξAsp(3,3-Me2) = CC(C)(C(=O)O)C(N)C(=O)O; X3 = O=C(CCc1ccccc1)C1CCCCC1C(=O)*; Pentanoyl(4-Me) = CC(C)CCC(=O)*; X5 = CC(C)C(CCCCc1ccccc1)C(=O)*; Butanoyl(2-Et) = CCC(CC)C(=O)*; O(2S-octyl) = CCCCCC[C@H](C)O*; Tle = CC(C)(C)[C@H](N)C(=O)O; Leu(ol) = CC(C)C[C@H](N)CO; Hiv = CC(C)[C@H](O)C(=O)O; Isovaleryl = CC(C)CC(=O)*; Morpholide = C1CN(*)CCO1; Pyrrolidide = C1CCN(*)C1; X4 = CC1CCCC(C)C1C(=O)*; X6 = CCCCCCCCN(C)*; Bn = c1ccc(C*)cc1; NEt2 = CCN(CC)*
Molecular target: T1, HSV-1 ribonucleotide reductase (Human herpesvirus 1, UniProt P08543)
T1 construct: HSV-1 ribonucleotide reductase (partially purified) was obtained from quiescent BHK-21/C13 cells infected with strain F HSV-1 virus; endogenous in cells; host or cells: quiescent BHK-21/C13 (hamster) cells infected with HSV-1 strain F; partially purified enzyme preparation
T1 sequence (P08543 whole entry): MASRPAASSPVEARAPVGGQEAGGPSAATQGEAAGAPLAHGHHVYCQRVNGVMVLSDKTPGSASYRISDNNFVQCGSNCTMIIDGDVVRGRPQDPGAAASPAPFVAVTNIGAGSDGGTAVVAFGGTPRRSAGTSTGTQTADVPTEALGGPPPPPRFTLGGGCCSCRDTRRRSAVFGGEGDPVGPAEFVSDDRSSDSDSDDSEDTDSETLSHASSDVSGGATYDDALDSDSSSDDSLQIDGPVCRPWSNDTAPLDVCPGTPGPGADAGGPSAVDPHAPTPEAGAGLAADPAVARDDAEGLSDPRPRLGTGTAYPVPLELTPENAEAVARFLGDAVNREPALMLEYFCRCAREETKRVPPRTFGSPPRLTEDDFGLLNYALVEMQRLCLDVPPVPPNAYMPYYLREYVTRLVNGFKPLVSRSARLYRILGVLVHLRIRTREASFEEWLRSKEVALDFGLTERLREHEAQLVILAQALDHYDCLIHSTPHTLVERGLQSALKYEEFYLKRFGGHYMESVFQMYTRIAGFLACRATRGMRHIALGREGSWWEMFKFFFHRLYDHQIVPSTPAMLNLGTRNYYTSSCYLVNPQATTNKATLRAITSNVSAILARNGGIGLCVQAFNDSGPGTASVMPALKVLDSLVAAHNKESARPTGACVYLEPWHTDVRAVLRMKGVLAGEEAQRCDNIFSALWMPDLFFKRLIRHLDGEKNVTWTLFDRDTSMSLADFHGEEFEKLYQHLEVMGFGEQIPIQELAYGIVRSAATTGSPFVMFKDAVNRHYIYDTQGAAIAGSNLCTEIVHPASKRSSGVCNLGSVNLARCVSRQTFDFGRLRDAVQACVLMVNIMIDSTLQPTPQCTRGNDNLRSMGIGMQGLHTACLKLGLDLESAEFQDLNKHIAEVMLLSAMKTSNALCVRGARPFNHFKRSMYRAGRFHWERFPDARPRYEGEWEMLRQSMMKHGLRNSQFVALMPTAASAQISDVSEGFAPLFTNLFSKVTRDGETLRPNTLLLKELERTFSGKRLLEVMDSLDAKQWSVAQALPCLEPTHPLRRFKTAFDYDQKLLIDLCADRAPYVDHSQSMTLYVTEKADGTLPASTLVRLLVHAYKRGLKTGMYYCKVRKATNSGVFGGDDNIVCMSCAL
Test: Inhibition of Herpes Simplex Virus (HSV, Type 1) Ribonucleotide Reductase
Format: biochemical, herpes simplex virus type 1 (strain F)
Details: mean of four assays
Excerpt: Inhibition of Herpes Simplex Virus (HSV, Type 1) Ribonucleotide Reductase
HSV-1 ribonucleotide reductase (partially purified) was obtained from quiescent BHK-21/C13 cells infected with strain F HSV-1 virus at 10 plaque forming units/cell as described by E. A. Cohen et al., J. Gen. Virol., 66, 733 (1985).
b) Assay and Results for Exemplified Peptides
By following the procedure described by P. Gaudreau et al., J. Biol, Chem., 262, 12413 (1987), the assay results listed in the following table were obtained. The assay result for each peptide is expressed as the concentration of the peptide producing 50% of the maximal inhibition (IC50) of enzyme activity. The number of units of the enzyme preparation used in each assay was constant, based on the specific activity of the enzyme preparation. The results are relative to the activity obtained in control experiments without peptide and represent the mean of four assays that varied less than 10% with each other.

[1] = concentration producing 50% of the maximal inhibition of enzyme activity, partially purified enzyme
[2] = separated diastereoisomer, first eluted on HPLC (footnotes 1, 3)
[3] = separated diastereoisomer, second eluted on HPLC (footnotes 1, 3)

Compound | IC50 [1] [nM] | other results
CC[C@H](C)[C@H](NC(=O)c1ccccc1-c1ccccc1)C(=O)N[C@@H](CC(=O)N1CCCC1)C(=O)N[C@@H](CC(=O)O)C(=O)N[C@@H](CC(C)C)c1nnn[nH]1 [2-Biphenylcarbonyl-Ile-Asp(pyrrolidino)-Asp-NHCH--[CH2 CH(CH3)2-5-1H-tetrazole] | 13800 | –
CC[C@H](C)[C@H](NC(=O)c1ccccc1-c1ccccc1)C(=O)N[C@@H](CC(=O)N1CCOCC1)C(=O)N[C@@H](CC(=O)O)C(=O)N[C@@H](CC(C)C)C(=O)O [2-Biphenylylcarbonyl-Ile-Asp(morpholino)-Asp-Leu-OH] ({Benzoyl(2-Ph)}-ID(Morpholide)DL-OH) | 7200 | –
CC[C@H](C)[C@H](NC(=O)c1ccccc1-c1ccccc1)C(=O)N[C@@H](CC(=O)N1CCCC1)C(=O)N[C@@H](CC(=O)O)C(=O)N[C@@H](CC(C)C)C(=O)O [2-Biphenylylcarbonyl-Ile-Asp(pyrrolidino)-Asp-Leu-OH] ({Benzoyl(2-Ph)}-ID(Pyrrolidide)DL-OH) | 3600 | –
CC[C@H](C)[C@H](NC(=O)C1C(C)(C)C1(C)C)C(=O)N[C@@H](CC(=O)N1CCCC1)C(=O)N[C@@H](CC(=O)O)C(=O)N[C@@H](CC(C)C)C(=O)O [(2,2,3,3-Tetramethylcyclopropyl)carbonyl-Ile-Asp(pyrrolidino)-Asp-Leu-OH] ({cPrCO(2,2,3,3-Me4)}-ID(Pyrrolidide)DL-OH) | 1400 | –
CC[C@H](C)[C@H](NC(=O)C1C(C)CCCC1C)C(=O)N[C@@H](CC(=O)N1CCCC1)C(=O)N[C@@H](CC(=O)O)C(=O)N[C@@H](CC(C)C)C(=O)O (stereo partly drawn) [(2,6-Dimethylcyclohexyl)carbonyl-Ile-Asp(pyrrolidino)-Asp-Leu-OH] (X4-ID(Pyrrolidide)DL-OH) | 2100 | –
CCC(CC)C(=O)N[C@H](C(=O)N[C@@H](CC(=O)N1CCCC1)C(=O)N[C@H](C(=O)N[C@H](CO)CC(C)C)C1(C(=O)O)CCCC1)C(C)(C)C [(C2 H3)2 CHCO-Tbg-Asp(pyrrolidino)-Asp(cyPn)-(L-leucinol)] ({Butanoyl(2-Et)}-[Tle]D(Pyrrolidide)[Asp(3,3-(CH2)4)][Leu(ol)]) | 500 | –
CCC(CC)C(=O)N[C@H](C(=O)N[C@@H](CC(=O)N1CCCC1)C(=O)N[C@@H](CC(=O)O)C(=O)NCCC(C)(C)C)C1CCCC1 [(C2 H5)2 CHCO-Cpg-Asp(pyrrolidino)-Asp-NHCH2 CH2 C(CH)3] | 35000 | –
CCC(CC)C(=O)N[C@@H](Cc1cccs1)C(=O)N[C@@H](CC(=O)N1CCCC1)C(=O)N[C@@H](CC(=O)O)C(=O)NCCC(C)(C)C [(C2 H5)2 CHCO-NHCH(2-thienylmethyl)CO-Asp(pyrrolidino)-Asp-NHCH2 CH2 C(CH3)3] | 60000 | –
CCC(CC)C(=O)N[C@H](C(=O)N[C@@H](CC(=O)N1CCCC1)C(=O)N[C@@H](CC(=O)O)C(=O)NCCC(C)(C)C)c1ccccc1 [(C2 H5)2 CHCO-Phg-Asp(pyrrolidino)-Asp-NHCH2 CH2 C(CH3)3] | 40000 | –
CCCCCC[C@H](C)OC(=O)C[C@H](NC(=O)[C@@H](NC(=O)C(CC)CC)C(C)(C)C)C(=O)N[C@H](C(=O)N[C@@H](CC(C)C)C(=O)O)C1(C(=O)O)CCC1 [(C2 H5)2 CHCO-Tbg-Asp(1-methylheptyloxy)-Asp(cyBu)-Leu-OH] ({Butanoyl(2-Et)}-[Tle]D(O(2S-octyl))[Gly(1-COOH-cBu)]L-OH) | 500 | –
CCCCCC[C@H](C)OC(=O)C[C@H](NC(=O)[C@@H](NC(=O)C(CC)CC)C(C)(C)C)C(=O)N[C@H](C(=O)N[C@@H](CC(C)C)C(=O)O)C1(C(=O)O)CCCC1 [(C2 H5)2 CHCO-Tbg-Asp(1-methylheptyloxy)-Asp(cyPn)-Leu-OH] ({Butanoyl(2-Et)}-[Tle]D(O(2S-octyl))[Asp(3,3-(CH2)4)]L-OH) | 370 | –
CCCCCCCCN(C)C(=O)C[C@H](NC(=O)[C@@H](NC(=O)C(CC)CC)C(C)(C)C)C(=O)N[C@H](C(=O)N[C@@H](CC(C)C)C(=O)O)C1(C(=O)O)CCC1 [(C2 H5)2 CHCO-Tbg-Asp(N-Me-N-octyl)-Asp(cyBu)-Leu-OH] ({Butanoyl(2-Et)}-[Tle]D(X6)[Gly(1-COOH-cBu)]L-OH) | 200 | –
CCCCC(C(=O)O)[C@H](NC(=O)[C@H](CC(=O)N1CCCC1)NC(=O)[C@@H](NC(=O)C(CC)CC)C(C)(C)C)C(=O)N[C@@H](CC(C)C)C(=O)O (stereo partly shown) [(C2 H5)2 CHCO-Tbg-Asp(pyrrolidino)-Asp(Bu)-Leu-OH] | 2000 | –
CCC(CC)C(=O)N[C@H](C(=O)N[C@@H](CC(=O)N1CCCC1)C(=O)N[C@H](C(=O)N[C@@H](CC(C)C)C(=O)O)C(CC)(CC)C(=O)O)C(C)(C)C [(C2 H5)2 CHCO-Tbg-Asp(pyrrolidino)-Asp(diEt)-Leu-OH] | 100 | –
CCC(CC)C(=O)N[C@H](C(=O)N[C@@H](CC(=O)N1CCCC1)C(=O)NC(C(=O)N[C@@H](CC(C)C)C(=O)O)C(C)(C)C(=O)O)C(C)(C)C (stereo partly drawn) [(C2 H5)2 CHCO-Tbg-Asp(pyrrolidino)-Asp(diMe)-Leu-OH] ({Butanoyl(2-Et)}-[Tle]D(Pyrrolidide)[ξAsp(3,3-Me2)]L-OH) | – | IC50 (separated diastereoisomer, first value listed (footnote 5, order not stated)): 140 nM; IC50 (separated diastereoisomer, second value listed (footnote 5, order not stated)): 9100 nM
CCC(CC)C(=O)N[C@H](C(=O)N[C@@H](CC(=O)N1CCCC1)C(=O)N[C@@H](CC(=O)O)C(=O)N[C@H](CO)[C@@H](C)CC)C(C)(C)C [(C2 H5)2 CHCO-Tbg-Asp(pyrrolidino)-Asp-(L-isoleucinol)] | 11000 | –
CCC(CC)C(=O)N[C@H](C(=O)N[C@@H](CC(=O)N1CCCC1)C(=O)N[C@@H](CC(=O)O)C(=O)NCCC(C)(C)C)C(C)(C)C [(C2 H5)2 CHCO-Tbg-Asp(pyrrolidino)-Asp-NHCH2 CH2 C(CH)3] | 18000 | –
CCC(CC)C(=O)N[C@H](C(=O)N[C@@H](CC(=O)N1CCCC1)C(=O)N[C@@H](CC(=O)O)C(=S)N[C@@H](CC(C)C)C(=O)O)C(C)(C)C [(C2 H5)2 CHCO-Tbg-Asp(pyrrolidino)-Asp.PSI.[CSNH]Leu-OH] | 1900 | –
CCC(CC)C(=O)N[C@H](C(=O)N[C@@H](CC(=O)N1CCCC1)C(=O)N[C@@H](CC(=O)O)C(=O)N[C@@H](CC(C)C)C(=O)O)[C@@H](C)OCc1ccccc1 [(C2 H5)2 CHCO-Thr(OBz)-Asp(pyrrolidino)-Asp-Leu-OH] ({Butanoyl(2-Et)}-T(Bn)D(Pyrrolidide)DL-OH) | 3400 | –
CCC(CC)C(=O)N[C@H](C(=O)N[C@@H](CC(=O)N1CCCC1)C(=O)N[C@@H](CC(=O)O)C(=O)NCCC(C)(C)C)[C@@H](C)OC [(C2 H5)2 CHCO-Thr(OMe)-Asp(pyrrolidino)-Asp-NHCH2 CH2 C(CH3)3] | 75000 | –
CCC(CC)C(=O)N[C@H](C(=O)N[C@@H](CC(=O)N1CCCC1)C(=O)N[C@@H](CC(=O)O)C(=O)N[C@H](CO)CC1CCCCC1)C(C)(C)C [(C2 H5)CHCO-Tbg-Asp(pyrrolidino)-Asp-NH--CH(cyclohexylmethyl)CH2 OH] | 10500 | –
CCCCCC[C@H](C)OC(=O)C[C@H](NC(=O)[C@@H](NC(=O)CCC(C)C)[C@@H](C)CC)C(=O)N[C@@H](CC(=O)O)C(=O)N[C@@H](CC(C)C)C(=O)O [(CH3)2 CHCH2 CH2 CO-Ile-Asp(1-methylheptyloxy)-Asp-Leu-OH] ({Pentanoyl(4-Me)}-ID(O(2S-octyl))DL-OH) | > 10000 | –
CC[C@H](C)[C@H](NC(=O)CCC(C)C)C(=O)N[C@@H](CC(=O)N1CCCC1)C(=O)N[C@@H](CC(=O)O)C(=O)N[C@@H](CC(C)C)C(=O)O [(CH3)2 CHCH2 CH2 CO-Ile-Asp(pyrrolidino)-Asp-Leu-OH] ({Pentanoyl(4-Me)}-ID(Pyrrolidide)DL-OH) | 3000 | –
CC[C@H](C)[C@H](NC(=O)CC(C)C)C(=O)N[C@@H](CC(=O)N1CCCC1)C(=O)N[C@@H](CC(=O)O)C(=O)N[C@@H](CC(C)C)C(=O)O [(CH3)2 CHCH2 CO-Ile-Asp(pyrrolidino)-Asp-Leu-OH] (Isovaleryl-ID(Pyrrolidide)DL-OH) | 2700 | –
CC(C)C[C@H](NC(=O)[C@H](CC(=O)O)NC(=O)[C@H](CC(=O)N1CCCC1)NC(=O)[C@@H](NC(=O)[C@@H](O)C(C)C)C(C)(C)C)C(=O)O [[(S)-(CH3)2 CHCH(OH)CO]-Tbg-Asp(pyrrolidino)-Asp-Leu-OH] (H-[Hiv][Tle]D(Pyrrolidide)DL-OH) | 2800 | –
CC[C@H](C)[C@H](NC(=O)C1C(C)CCC(C)C1C(=O)OCCc1ccccc1)C(=O)N[C@@H](CC(=O)N1CCCC1)C(=O)N[C@@H](CC(=O)O)C(=O)N[C@@H](CC(C)C)C(=O)O (stereo partly drawn) [[(d,1)1α,2α,3β,6β-3,6-Dimethyl-2-(phenylethoxycarbonyl)cyclohexanecarbonyl]-Ile-Asp(pyrrolidino)-Asp-Leu-OH] (X1-ID(Pyrrolidide)DL-OH) | – | IC50 [2]: 500 nM; IC50 [3]: 2300 nM
CC[C@H](C)[C@H](NC(=O)C1CCCCC1C(=O)CCc1ccccc1)C(=O)N[C@@H](CC(=O)N(CC)CC)C(=O)N[C@@H](CC(=O)O)C(=O)N[C@@H](CC(C)C)C(=O)O (stereo partly drawn) [[(d,1)-2-(3-Phenyl-1-oxopropyl)cyclohexanecarbonyl]-Ile-Asp(NEt2)-Asp-Leu-OH] (X3-ID(NEt2)DL-OH) | – | IC50 [2]: 1400 nM; IC50 [3]: 34000 nM
CC[C@H](C)[C@H](NC(=O)C(CCCCc1ccccc1)C(C)C)C(=O)N[C@@H](CC(=O)N1CCCC1)C(=O)N[C@@H](CC(=O)O)C(=O)N[C@@H](CC(C)C)C(=O)O (stereo partly drawn) [[d,1-Ph(CH2)4 -CH[CH(CH3)2 ]CO]-Ile-Asp(pyrrolidino)-Asp-Leu-OH] (X5-ID(Pyrrolidide)DL-OH) | 1300 | –

Reference: US6313095A, “Antiherpes tetrapeptide derivatives having a substituted aspartic acid side chain” (Boehringer Ingelheim (Canada), Ltd., priority 1989, dated 2001)
